Reference: US20050197372A1 (priority 2002, published 2005)

Columns and labels:
[1] = system: platelet-leukocyte microparticles (CD151 + CD14); test: Whole blood flow cytometry, platelet-leukocyte microparticles; format: cell-based, human; conditions: for Formation of platelet-leukocyte microparticles (CD151 + CD14): baseline 92.2 ± 19.3
Procedure: (§1) None of them received aspirin or any other anti-platelet agents. All subjects underwent blood sampling after at least 30 minutes of rest and 2 or more hours of fasting. Blood was drawn between 8 and 10 a.m. in order to avoid any diurnal influence and sampled from an antecubital vein using a 21-gauge butterfly needle containing 3.8% sodium citrate (1:9 volume) after having discarded the first 1.5 ml of free running blood. Eleven Vacutainer tubes (4.5 ml) were collected for a total of 49 ml of whole blood-citrate mixture from each study participant. One tube was kept as an internal control and was incubated with buffer solution. […] To avoid possible observer bias, blood samples were coded and blinded. Sampling procedures, and platelet studies were performed by individuals unaware of the protocol.
(§2) The expression of platelet receptors was determined by using the following monoclonal antibodies: CD31 (platelet endothelial cell adhesion molecule (PECAM-1), CD41 (glycoprotein [GP] IIb/IIIa, (IIb (3), CD42b (GP Ib), CD 51/CD61 ((v (3, or vitronectin receptor), CD62p (P-selectin), CD107a (lysosome associated membrane protein-1; LAMP-1), CD 107b (LAMP-2), CD151 (platelet/endothelial tetraspan antigen-3; PETA-3), and PAC-1 for fibrinogen-platelet (PharMingen, San Diego, Calif.). Platelet-leukocyte interactions were assessed by using dual antibodies for a pan-platelet marker (CD 151), together with CD14, a monocyte/macrophage marker. The blood-citrate mixture (50 μl) was diluted with 450 μl Tris buffered saline (TBS) (10 mmol/L Tris, 0.15 mol/L sodium chloride) and mixed by gently inverting an Eppendorf tube 2 times. Five μl of the corresponding antibodies were then added to each solution and the samples were incubated for 30 minutes. After incubation, 400 μl of 2% buffered paraformaldehyde was added for fixation. The samples were analyzed by a Becton Dickinson FACScan flow cytometer set up to measure fluorescent light scatter, as described in Gurbel P A, et al., J Am Coll Cardiol. 1998; 31: 1466-1473. The data were collected in list mode files and then analyzed. P selectin was expressed as percent positive cells as described in Gurbel P A, et al, Am Heart J 2000; 139: 320-328. Other antigens were expressed as log mean fluorescence intensity.

[2] = system: platelet/endothelial cell adhesion molecule-1 (PECAM-1, CD31); test: Whole blood flow cytometry, PECAM-1 expression; format: cell-based, human; conditions: for Expression of platelet/endothelial cell adhesion molecule-1 (PECAM-1, CD31): baseline 69.2 ± 10.3
Procedure: as §1, §2

P-selectin (CD 62p) = test: Whole blood flow cytometry, P-selectin expression; format: cell-based, human; conditions: for Expression of P-selectin (CD 62p): baseline 9.1 ± 3.8
Procedure: as §1, §2

[3] = system: lysosome associated membrane protein -2 (LAMP-2, CD107b); test: Whole blood flow cytometry, LAMP-2 expression; format: cell-based, human; conditions: for Expression of lysosome associated membrane protein -2 (LAMP-2, CD107b): baseline 6.6 ± 2.1
Procedure: as §1, §2

[4] = system: platelet/endothelial tetraspan antigen -3 (PETA-3, CD151); test: Whole blood flow cytometry, PETA-3 expression; format: cell-based, human; conditions: for Expression of platelet/endothelial tetraspan antigen -3 (PETA-3, CD151): baseline 88.7 ± 24.2
Procedure: as §1, §2

[5] = system: shear-induced platelet aggregation; test: PFA-100 closure time, epinephrine/collagen cartridge; format: cell-based, human; conditions: for PFA-100 closure time with the epinephrine/collagen cartridge: baseline 201 ± 22
Procedure: as §1
The platelet function analyzer (PFA-100′, Dade Behring, Deerfield, Ill.) is a device that simulates changes in primary hemostasis after injury to a small vessel under flow conditions. Kundu S K, et al., Semin Thromb Hemost 1995; 21(Suppl 2): 106-112. The time required to obtain occlusion of the aperture was digitally recorded as a measure of shear-induced platelet aggregation. Closure time determinations were performed in duplicate.

[6] = system: platelet glycoprotein IIb/IIIa antigen (GPIIb, CD41); test: Whole blood flow cytometry, GP IIb/IIIa antigen expression; format: cell-based, human; conditions: for Expression of platelet glycoprotein IIb/IIIa antigen (GPIIb, CD41): baseline 521.8 ± 98.2
Procedure: as §1, §2

[7] = system: human platelets in whole blood; test: Whole blood impedance platelet aggregation induced by collagen; format: cell-based; conditions: for Whole blood impedance platelet aggregation induced by 1 μg/ml collagen: 60 minutes at 37° C., baseline 29 ± 7
Procedure: as §1
The methods are described in detail in Abbate R, et al., Amer J Clin Pathol 1986; 86: 91-96. Briefly, the whole blood citrate mixture was diluted 1:1 with 0.5 ml TBS, then swirled gently. The cuvette with the stirring bar was placed in the incubation well and allowed to warm to 37° C. for 5 minutes. Then the sample was transferred to the assay well. An electrode was placed in the sample cuvette. Platelet aggregation was stimulated with 1 μg/ml collagen. Platelet aggregation studies were performed using a Chrono-Log Whole Blood Aggregometer using Aggrolink” software. Platelet aggregability was expressed as the change in electrical impedance and is expressed in ohms.

CC(O)CCC(=O)N(Cc1ccc(-c2ccccc2-c2nnn[nH]2)cc1)[C@H](C(=O)O)C(C)C (stereo partly drawn) [Valeryl 4-hydroxy valsartan, (S)-2{(4-Hydroxy-pentanoyl)-[2′-(1H-tetrazol-5-yl)-biphenyl-4-ylmethyl]amino}-3-methyl-butyric Acid]
Formation of platelet-leukocyte microparticles (CD151 + CD14) ([1]; drug 10 nM): 99.4 ± 29.7 log MFI | Formation of platelet-leukocyte microparticles (CD151 + CD14) ([1]; drug 100 nM): 94.3 ± 18.7 log MFI | Formation of platelet-leukocyte microparticles (CD151 + CD14) ([1]; drug 1 μM): 90.7 ± 20.5 log MFI | Formation of platelet-leukocyte microparticles (CD151 + CD14) ([1]; drug 10 μM): 89.2 ± 18.7 log MFI | Formation of platelet-leukocyte microparticles (CD151 + CD14) ([1]; drug 100 μM): 95.6 ± 19.9 log MFI | Effect on platelet-leukocyte microparticles (CD151+14) (in words) ([1]; whole blood flow cytometry): not associated with any effect | Expression of platelet/endothelial cell adhesion molecule-1 (PECAM-1, CD31) ([2]; drug 10 nM): 74.2 ± 13.4 log MFI | Expression of platelet/endothelial cell adhesion molecule-1 (PECAM-1, CD31) ([2]; drug 100 nM): 69.7 ± 15.1 log MFI | Expression of platelet/endothelial cell adhesion molecule-1 (PECAM-1, CD31) ([2]; drug 1 μM): 70.3 ± 16.4 log MFI | Expression of platelet/endothelial cell adhesion molecule-1 (PECAM-1, CD31) ([2]; drug 10 μM): 73.1 ± 9.3 log MFI | Expression of platelet/endothelial cell adhesion molecule-1 (PECAM-1, CD31) ([2]; drug 100 μM): 71.2 ± 15.5 log MFI | Effect on PECAM-1 (CD31) (in words) ([2]; whole blood flow cytometry): not associated with any effect | Expression of P-selectin (CD 62p) (P-selectin (CD 62p); drug 10 nM): 9.3 ± 4.3 % of cell positivity | Expression of P-selectin (CD 62p) (P-selectin (CD 62p); drug 100 nM): 10.2 ± 5.4 % of cell positivity | Expression of P-selectin (CD 62p) (P-selectin (CD 62p); drug 1 μM): 7.3 ± 3.7 % of cell positivity | Expression of P-selectin (CD 62p) (P-selectin (CD 62p); drug 10 μM): 6.9 ± 4.2 % of cell positivity | Expression of P-selectin (CD 62p) (P-selectin (CD 62p); drug 100 μM): 8.9 ± 3.8 % of cell positivity | Effect on P-selectin on platelet surface (in words) (P-selectin (CD 62p); whole blood flow cytometry): significantly diminished | Expression of lysosome associated membrane protein -2 (LAMP-2, CD107b) ([3]; drug 10 nM): 7.7 ± 3.8 log MFI | Expression of lysosome associated membrane protein -2 (LAMP-2, CD107b) ([3]; drug 100 nM): 7.0 ± 3.0 log MFI | Expression of lysosome associated membrane protein -2 (LAMP-2, CD107b) ([3]; drug 1 μM): 6.6 ± 3.4 log MFI | Expression of lysosome associated membrane protein -2 (LAMP-2, CD107b) ([3]; drug 10 μM): 7.2 ± 3.9 log MFI | Expression of lysosome associated membrane protein -2 (LAMP-2, CD107b) ([3]; drug 100 μM): 7.1 ± 2.9 log MFI | Effect on LAMP-2 (CD107b) (in words) ([3]; whole blood flow cytometry): not associated with any effect | Expression of platelet/endothelial tetraspan antigen -3 (PETA-3, CD151) ([4]; drug 10 nM): 89.4 ± 18.2 log MFI | Expression of platelet/endothelial tetraspan antigen -3 (PETA-3, CD151) ([4]; drug 100 nM): 92.7 ± 22.2 log MFI | Expression of platelet/endothelial tetraspan antigen -3 (PETA-3, CD151) ([4]; drug 1 μM): 90.5 ± 15.7 log MFI | Expression of platelet/endothelial tetraspan antigen -3 (PETA-3, CD151) ([4]; drug 10 μM): 84.2 ± 31.1 log MFI | Expression of platelet/endothelial tetraspan antigen -3 (PETA-3, CD151) ([4]; drug 100 μM): 93.4 ± 27.4 log MFI | Effect on PETA-3 (CD151) (in words) ([4]; whole blood flow cytometry): not associated with any effect | Antiplatelet properties compared with valsartan (in words) ([5]; cartridge-based analyzers (PFA-100 and Ultegra)): stronger antiplatelet properties than valsartan | PFA-100 closure time with the epinephrine/collagen cartridge ([5]; drug 10 nM): 179 ± 28 s | PFA-100 closure time with the epinephrine/collagen cartridge ([5]; drug 100 nM): 190 ± 24 s | PFA-100 closure time with the epinephrine/collagen cartridge ([5]; drug 1 μM): 259 ± 20 s | PFA-100 closure time with the epinephrine/collagen cartridge ([5]; drug 10 μM): 257 ± 25 s | PFA-100 closure time with the epinephrine/collagen cartridge ([5]; drug 100 μM): 232 ± 31 s | Expression of platelet glycoprotein IIb/IIIa antigen (GPIIb, CD41) ([6]; drug 10 nM): 505.6 ± 77.8 log MFI | Expression of platelet glycoprotein IIb/IIIa antigen (GPIIb, CD41) ([6]; drug 100 nM): 432.7 ± 116.8 log MFI | Expression of platelet glycoprotein IIb/IIIa antigen (GPIIb, CD41) ([6]; drug 1 μM): 427.2 ± 114.1 log MFI | Expression of platelet glycoprotein IIb/IIIa antigen (GPIIb, CD41) ([6]; drug 10 μM): 515.9 ± 156.2 log MFI | Expression of platelet glycoprotein IIb/IIIa antigen (GPIIb, CD41) ([6]; drug 100 μM): 529.3 ± 121.8 log MFI | Effect on expression of GP IIb/IIIa (CD 41) (in words) ([6]; whole blood flow cytometry): slightly reduced | Effect on collagen-induced platelet aggregation in whole blood (in words) ([7]; 1 μM collagen as printed in text, within the range of therapeutic activity): inhibited aggregation | Whole blood impedance platelet aggregation induced by 1 μg/ml collagen ([7]; drug 10 nM): 32 ± 8 ohms | Whole blood impedance platelet aggregation induced by 1 μg/ml collagen ([7]; drug 100 nM): 31 ± 9 ohms | Whole blood impedance platelet aggregation induced by 1 μg/ml collagen ([7]; drug 1 μM): 14 ± 6 ohms | Whole blood impedance platelet aggregation induced by 1 μg/ml collagen ([7]; drug 10 μM): 16 ± 8 ohms | Whole blood impedance platelet aggregation induced by 1 μg/ml collagen ([7]; drug 100 μM): 17 ± 8 ohms
